EC50 data for 20 molecules are collected here from patent US12180226B2, “Spirotricycle RIPK1 inhibitors and methods of uses thereof” (Merck Sharp & Dohme LLC, priority 2021, dated 2024).

The pEC50 is the EC50 on a negative log10 scale, so that one unit is a factor of ten.

In the assay the target is RIPK1 (recombinant GST-RIPK1 kinase domain, residues 1-327) (Homo sapiens (Human), UniProt Q13546). The assay can be described thus: RIPK1-ADP-Glo Enzymatic Assay. The assay is classed as biochemical. Conditions: ADP-Glo; 25 nM GST-RIPK1, 300 μM ATP; assay lower limit ~25 nM; read-out: RIPK1 V0 Ec50. A digest of the protocol:
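Compounds titrated 10-pt 1:3 from 100000 nM top (1% DMSO); 30 min preinc w/ 25 nM Sf21-expressed enzyme, RT; start w/ ATP (300 μM final) + dephos-MBP (3 μM); 150 min; ADP-Glo lumi; 4-param fit → EC50.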
(In general: ADP-Glo first removes unused ATP, then detects ADP through luciferase.)

pEC50: −log10 of the molar value.

Sequence of RIPK1 (recombinant GST-RIPK1 kinase domain, residues 1-327) (Q13546 1-327): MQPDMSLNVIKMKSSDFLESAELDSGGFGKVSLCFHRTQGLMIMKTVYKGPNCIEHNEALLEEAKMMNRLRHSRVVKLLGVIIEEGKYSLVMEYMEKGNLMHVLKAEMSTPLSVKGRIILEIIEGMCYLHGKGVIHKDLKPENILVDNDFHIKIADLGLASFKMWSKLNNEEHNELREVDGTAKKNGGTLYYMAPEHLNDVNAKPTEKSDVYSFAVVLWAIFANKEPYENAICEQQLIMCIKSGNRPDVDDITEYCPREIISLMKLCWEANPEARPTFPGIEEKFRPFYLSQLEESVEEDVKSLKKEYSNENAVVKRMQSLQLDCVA

For `O=C1N2[C@@H](CC[C@H]2c2ccccc2F)OC12CCN(c1ccnc(-c3cnn(C(F)F)c3)c1)CC2` [Example 10.4, (5′S,7a′R)-1-{2-[1-(difluoromethyl)-1H-pyrazol-4-yl]pyridin-4-yl}-5′-(2-fluorophenyl)tetrahydro-3′H-spiro[piperidine-4,2′-pyrrolo[2,1-b][1,3]oxazol]-3′-one], the pEC50 is above 7.60.

On to `N#Cc1cncc([C@@H]2CC[C@H]3SC4(CCN(C(=O)c5ccccc5)CC4)C(=O)N32)c1` [Example 7.4, 5-[(5′S,7a′R)-1-(benzenecarbonyl)-3′-oxotetrahydro-3′H-spiro[piperidine-4,2′-pyrrolo[2,1-b][1,3]thiazol]-5′-yl]pyridine-3-carbonitrile], for which the pEC50 is 6.97.

For the molecule `O=C(c1cc(F)cc(F)c1)N1CCC2(CC1)O[C@@H]1CC[C@@H](c3cc(F)cc(F)c3)N1C2=O` [Example 6.48, (5′S,7a′R)-1-(3,5-difluorobenzene-1-carbonyl)-5′-(3,5-difluorophenyl)tetra-hydro-3′H-spiro [piperidine-4,2′-pyrrolo[2,1-b][1,3]oxazol]-3′-one], the pEC50 was 7.47.

Consider `O=C(c1ncc(F)cc1F)N1CCC2(CC1)O[C@@H]1CC[C@@H](c3cc(F)cc(F)c3)N1C2=O` [Example 6.89, (5′S,7a′R)-5′-(3,5-difluorophenyl)-1-(3,5-difluoropyridine-2-carbonyl)tetrahydro-3′H-spiro[piperidine-4,2′-pyrrolo[2,1-b] [1,3]oxazol]-3′-one], for which the pEC50 is 7.45.

In the case of `O=C(c1coc(Cl)n1)N1CCC2(CC1)O[C@@H]1CC[C@@H](c3cccc(F)c3)N1C2=O` [Example 6.127, (5′S,7a′R)-1-(2-chloro-1,3-oxazole-4-carbon-yl)-5′-(3-fluorophenyl)-tetrahydro-3′H-spiro [piperidine-4,2′-pyrrolo[2,1-b][1,3]oxazol]-3′-one], the pEC50 was 7.22.

Consider `COc1cccc(C(=O)N2CCC3(CC2)O[C@@H]2CC[C@@H](c4cccc(F)c4)N2C3=O)c1` [Example 6.117, (5′S,7a′R)-5′-(3-fluorophenyl)-1-(3-methoxybenzene-1-carbonyl)tetrahydro-3′H-spiro[piperidine-4,2′-pyrrolo[2,1-b] [1,3]oxazol]-3′-one], for which the pEC50 was above 7.60.

Consider `Cc1ccnc(C(=O)N2CCC3(CC2)O[C@@H]2CC[C@@H](c4cc(F)cc(F)c4)N2C3=O)n1` [Example 6.88, (5′S,7a′R)-5′-(3,5-difluorophenyl)-1-(4-methylpyrimidine-2-carbonyl)tetrahydro-3′H-spiro[piperidine-4,2′-pyrrolo[2,1-b] [1,3]oxazol]-3′-one], for which the pEC50 was 6.87.

With `O=C(c1ccccc1)N1CCC2(CC1)O[C@@H]1CC[C@@H](c3ccccc3F)N1C2=O` [Example 1.13, (5′S,7a′R)-1-benzoyl-5′-(2-fluorophenyl)tetrahydro-3′H-spiro[piperidine-4,2′-pyrrolo[2,1-b]oxazol]-3′-one], the pEC50 is above 7.60.

Consider `O=C(c1cc(Cl)ccc1F)N1CCC2(CC1)O[C@@H]1CC[C@@H](c3cc(F)cc(F)c3)N1C2=O` [Example 5.61, (5′S,7a′R)-1-(5-chloro-2-fluorobenzoyl)-5′-(3,5-difluorophenyl)tetrahydro-3′H-spiro[piperidine-4,2′-pyrrolo[2,1-b]oxazol]-3′-one], for which the negative logarithm of the EC50 (pEC50) was above 7.60.

For the molecule `N#Cc1cnn2c(N3CCC4(CC3)O[C@@H]3CC[C@@H](c5ccccc5)N3C4=O)ncnc12` [Example 4.218, 4-[(5′S,7a′R)-3′-oxo-5′-phenyltetrahydro-1H,3′H-spiro[piperidine-4,2′-pyrrolo[2,1-b] [1,3]oxazol]-1-yl]pyrazolo[1,5-a] [1,3,5]triazine-8-carbonitrile], the pEC50 is above 7.60.

For `COc1ncnc(N2CCC3(CC2)O[C@@H]2CC[C@@H](c4ccccc4)N2C3=O)c1F` [Example 11.28, (5′S,7a′R)-1-(5-fluoro-6-methoxypyrimidin-4-yl)-5′-phenyltetrahydro-3′H-spiro[piperidine-4,2′-pyrrolo[2,1-b][1,3]oxazol]-3′-one], the pEC50 is above 7.60.

As to `O=C1N2[C@@H](CC[C@H]2c2ccccc2)OC12CCN(c1ncccc1C(F)F)CC2` [Example 11.24, (5′S,7a′R)-1-[3-(difluoromethyl)pyridin-2-yl]-5′-phenyltetrahydro-3′H-spiro[piperidine-4,2′-pyrrolo[2,1-b][1,3]oxazol]-3′-one], the pEC50 was 6.44.

On to `N#Cc1cnc(N2CCC3(CC2)O[C@@H]2CC[C@@H](c4cccc(F)c4)N2C3=O)c(F)c1` [Example 4.50, 5-fluoro-6-[(5′S,7a′R)-5′-(3-fluorophenyl)-3′-oxotetrahydro-1H,3′H-spiro[piperidine-4,2′-pyrrolo[2,1-b] [1,3]oxazol]-1-yl]pyridine-3-carbonitrile], for which the pEC50 was 7.51.

As to `COc1nccc(N2CCC3(CC2)O[C@@H]2CC[C@@H](c4ccccc4)N2C3=O)n1` [Example 4.17, (5′S,7a′R)-1-(2-methoxypyrimidin-4-yl)-5′-phenyltetrahydro-3′H-spiro[piperidine-4,2′-pyrrolo[2,1-b] [1,3]oxazol]-3′-one], the pEC50 is above 7.60.

For `O=C(c1nc2ccncc2s1)N1CCC2(CC1)O[C@@H]1CC[C@@H](c3cc(F)cc(F)c3)N1C2=O` [Example 6.23, (5′S,7a′R)-5′-(3,5-difluorophenyl)-1-([1,3]thiazolo[5,4-c]-pyridine-2-carbonyl) tetrahydro-3′H-spiro [piperidine-4,2′-pyrrolo[2,1-b][1,3]oxazol]-3′-one], the negative-log EC50 (pEC50) was 7.02.

Consider `N#Cc1cnc(N2CCC3(CC2)O[C@@H]2CC[C@@H](c4ccccc4F)N2C3=O)nc1` [Example 4.106, 2-((5′S,7a′R)-5′-(2-fluorophenyl)-3′-oxotetrahydro-3′H-spiro[piperidine-4,2′-pyrrolo[2,1-b]oxazol]-1-yl)pyrimidine-5-carbonitrile], for which the pEC50 is 7.52.

With `N#Cc1nccc(N2CCC3(CC2)O[C@@H]2CC[C@@H](c4cc(F)cc(F)c4)N2C3=O)n1` [Example 4.5, 4-[(5′S,7a′R)-5′-(3,5-difluorophenyl)-3′-oxotetrahydro-1H,3′H-spiro[piperidine-4,2′-pyrrolo[2,1-b] [1,3]oxazol]-1-yl]pyrimidine-2-carbonitrile], the pEC50 was above 7.60.

On to `COc1cccnc1C(=O)N1CCC2(CC1)O[C@@H]1CC[C@@H](c3cc(F)cc(F)c3)N1C2=O` [Example 6.81, (5′S,7a′R)-5′-(3,5-difluorophenyl)-1-(3-methoxypyridine-2-carbonyl)tetrahydro-3′H-spiro[piperidine-4,2′-pyrrolo[2,1-b] [1,3]oxazol]-3′-one], for which the negative logarithm of the EC50 (pEC50) was 6.03.

As for `O=C1N2[C@@H](CC[C@H]2c2ccccc2)OC12CCN(c1ncnn3c(F)cnc13)CC2` [Example 4.226, (5′S,7a′R)-1-(7-fluoroimidazo[2,1-f] [1,2,4]triazin-4-yl)-5′-phenyltetrahydro-3′H-spiro[piperidine-4,2′-pyrrolo[2,1-b] [1,3]oxazol]-3′-one], the pEC50 was above 7.60.

On to `O=C(c1cccc(-c2nnco2)c1)N1CCC2(CC1)O[C@@H]1CC[C@@H](c3cc(F)cc(F)c3)N1C2=O` [Example 6.64, (5′S,7a′R)-5′-(3,5-difluorophenyl)-1-[3-(1,3,4-oxadiazol-2-yl)benzene-1-carbon-yl]tetrahydro-3′H-spiro[piperidine-4,2′-pyrrolo[2,1-b][1,3]-oxazol]-3′-one], for which the pEC50 was above 7.60.
